Experimental findings from the supplement of paper PMC10307832 are described below.

Holding throughout (test): relative viability (nuclei count vs DMSO), 5 days (fraction); higher = more cells survive
Compound in the assay “IMD-0354 + Pictilisib”: O=C(Nc1cc(C(F)(F)F)cc(C(F)(F)F)c1)c1cc(Cl)ccc1O [IMD-0354] + CS(=O)(=O)N1CCN(Cc2cc3nc(-c4cccc5[nH]ncc45)nc(N4CCOCC4)c3s2)CC1 [Pictilisib] (partner 1 µM)
In short, it runs like this: (§1)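 Dosing by pin tool came one day after lung cancer cell lines were seeded in 1536-well plates, using either one drug or a fixed anchor-drug dose plus five library-drug doses (not always all listed) in √10 steps. After 5 days, nuclei were counted on 4× images. Relative viability is treated-well nuclei count divided by vehicle-well nuclei count, and values are medians of duplicate plates.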

Compound in the assay “CX-5461 + Phenformin”: Cc1cnc(CNC(=O)c2c(=O)c3ccc(N4CCCN(C)CC4)nc3n3c2sc2ccccc23)cn1 [CX-5461] + N=C(N)NC(=N)NCCc1ccccc1 [Phenformin] (partner 250 µM)
In short, it runs like this: as §1

Compound in the assay “IMD-0354 + Trametinib”: O=C(Nc1cc(C(F)(F)F)cc(C(F)(F)F)c1)c1cc(Cl)ccc1O [IMD-0354] + CC(=O)Nc1cccc(-n2c(=O)n(C3CC3)c(=O)c3c(Nc4ccc(I)cc4F)n(C)c(=O)c(C)c32)c1 [Trametinib] (partner 0.02 µM)
In short, it runs like this:
as §1

Compound in the assay “IMD-0354 + Vorinostat”: O=C(Nc1cc(C(F)(F)F)cc(C(F)(F)F)c1)c1cc(Cl)ccc1O [IMD-0354] + O=C(CCCCCCC(=O)Nc1ccccc1)NO [Vorinostat] (partner 1 µM)
Summed up:
as §1

On to PC-3 [JPC-3], for which the relative viability worked out at 0.779 with IMD-0354 + Pictilisib (first compound 0.04 µM); 0.701 with IMD-0354 + Pictilisib (first compound 0.1265 µM); 0.588 with IMD-0354 + Pictilisib (first compound 0.4 µM); 0.376 with IMD-0354 + Pictilisib (first compound 1.265 µM); 0.229 with IMD-0354 + Pictilisib (first compound 4 µM); 0.479 with CX-5461 + Phenformin (first compound 0.01 µM). Besides, the relative viability with CX-5461 + Phenformin (first compound 0.03162 µM) stood at 0.449; with CX-5461 + Phenformin (first compound 0.1 µM) it was 0.467; in the assay with CX-5461 + Phenformin (first compound 0.3162 µM), 0.467; in the assay with CX-5461 + Phenformin (first compound 1 µM), 0.455; in the assay with IMD-0354 + Trametinib (first compound 0.04 µM), 0.825; in the assay with IMD-0354 + Trametinib (first compound 0.1265 µM), 0.676. For the same cell line, the relative viability worked out at 0.65 with IMD-0354 + Trametinib (first compound 0.4 µM); 0.399 in the assay with IMD-0354 + Trametinib (first compound 1.265 µM); 0.267 with IMD-0354 + Trametinib (first compound 4 µM); 0.869 in the assay with IMD-0354 + Vorinostat (first compound 0.04 µM); 0.813 in the assay with IMD-0354 + Vorinostat (first compound 0.1265 µM); 0.769 in the assay with IMD-0354 + Vorinostat (first compound 0.4 µM). Besides, the relative viability with IMD-0354 + Vorinostat (first compound 1.265 µM) stood at 0.296; with IMD-0354 + Vorinostat (first compound 4 µM), 0.412.

PC-14: the relative viability is 1.05 with IMD-0354 + Pictilisib (first compound 0.04 µM); 0.713 with IMD-0354 + Pictilisib (first compound 0.1265 µM); 0.409 in the assay with IMD-0354 + Pictilisib (first compound 1.265 µM); 0.132 with IMD-0354 + Pictilisib (first compound 4 µM); 0.761 in the assay with CX-5461 + Phenformin (first compound 0.01 µM); 0.511 in the assay with CX-5461 + Phenformin (first compound 0.03162 µM). The relative viability with CX-5461 + Phenformin (first compound 0.1 µM) was 0.499; with CX-5461 + Phenformin (first compound 0.3162 µM), 0.229; in the assay with CX-5461 + Phenformin (first compound 1 µM), 0.319; with IMD-0354 + Trametinib (first compound 0.04 µM), 0.945; with IMD-0354 + Trametinib (first compound 0.1265 µM), 0.826; with IMD-0354 + Trametinib (first compound 0.4 µM), 0.301. Also, the relative viability with IMD-0354 + Trametinib (first compound 1.265 µM) stood at 0.359; with IMD-0354 + Trametinib (first compound 4 µM), 0.109; with IMD-0354 + Vorinostat (first compound 0.04 µM) it was 0.83; in the assay with IMD-0354 + Vorinostat (first compound 0.1265 µM) it was 0.751; in the assay with IMD-0354 + Vorinostat (first compound 0.4 µM), 0.564; with IMD-0354 + Vorinostat (first compound 1.265 µM), 0.234. Also, the relative viability with IMD-0354 + Vorinostat (first compound 4 µM) is 0.119.

RERF-LC-KJ: the relative viability with IMD-0354 + Pictilisib (first compound 0.04 µM) is 0.518; in the assay with IMD-0354 + Pictilisib (first compound 0.1265 µM), 0.595; with IMD-0354 + Pictilisib (first compound 0.4 µM) it was 0.542; with IMD-0354 + Pictilisib (first compound 1.265 µM), 0.233; with IMD-0354 + Pictilisib (first compound 4 µM), 0.226; in the assay with CX-5461 + Phenformin (first compound 0.01 µM), 0.448. Also, the relative viability with CX-5461 + Phenformin (first compound 0.03162 µM) came to 0.457; in the assay with CX-5461 + Phenformin (first compound 0.1 µM) it was 0.292; with CX-5461 + Phenformin (first compound 0.3162 µM), 0.41; in the assay with CX-5461 + Phenformin (first compound 1 µM), 0.386; in the assay with IMD-0354 + Trametinib (first compound 0.04 µM), 1.02; in the assay with IMD-0354 + Trametinib (first compound 0.1265 µM), 0.931. Moreover, the relative viability amounted to 0.663 with IMD-0354 + Trametinib (first compound 0.4 µM); 0.557 in the assay with IMD-0354 + Trametinib (first compound 1.265 µM); 0.174 in the assay with IMD-0354 + Trametinib (first compound 4 µM); 0.775 with IMD-0354 + Vorinostat (first compound 0.04 µM); 0.677 with IMD-0354 + Vorinostat (first compound 0.1265 µM); 0.542 in the assay with IMD-0354 + Vorinostat (first compound 0.4 µM). The relative viability in the assay with IMD-0354 + Vorinostat (first compound 1.265 µM) amounted to 0.167; in the assay with IMD-0354 + Vorinostat (first compound 4 µM) it was 0.172.

Take SK-LU-1: the relative viability in the assay with IMD-0354 + Pictilisib (first compound 0.04 µM) amounted to 0.681; with IMD-0354 + Pictilisib (first compound 0.1265 µM) it was 0.583; with IMD-0354 + Pictilisib (first compound 0.4 µM), 0.379; in the assay with IMD-0354 + Pictilisib (first compound 1.265 µM), 0.33; in the assay with IMD-0354 + Pictilisib (first compound 4 µM), 0.233; in the assay with CX-5461 + Phenformin (first compound 0.01 µM) it was 0.615. Further, the relative viability turned out to be 0.545 with CX-5461 + Phenformin (first compound 0.03162 µM); 0.397 with CX-5461 + Phenformin (first compound 0.1 µM); 0.229 with CX-5461 + Phenformin (first compound 1 µM); 0.447 with IMD-0354 + Trametinib (first compound 0.04 µM); 0.514 in the assay with IMD-0354 + Trametinib (first compound 0.1265 µM); 0.41 with IMD-0354 + Trametinib (first compound 0.4 µM). For the same cell line, the relative viability in the assay with IMD-0354 + Trametinib (first compound 1.265 µM) came to 0.239; with IMD-0354 + Trametinib (first compound 4 µM), 0.269; in the assay with IMD-0354 + Vorinostat (first compound 0.04 µM), 0.796; with IMD-0354 + Vorinostat (first compound 0.1265 µM) it was 0.597; with IMD-0354 + Vorinostat (first compound 0.4 µM), 0.623; with IMD-0354 + Vorinostat (first compound 1.265 µM), 0.194. Also, the relative viability with IMD-0354 + Vorinostat (first compound 4 µM) worked out at 0.264.

Regarding SK-MES-1, the relative viability with IMD-0354 + Pictilisib (first compound 0.04 µM) is 0.353; with IMD-0354 + Pictilisib (first compound 0.1265 µM), 0.363; with IMD-0354 + Pictilisib (first compound 0.4 µM), 0.335; in the assay with IMD-0354 + Pictilisib (first compound 1.265 µM) it was 0.261; with IMD-0354 + Pictilisib (first compound 4 µM) it was 0.226; in the assay with CX-5461 + Phenformin (first compound 0.01 µM), 0.662. For the same cell line, the relative viability with CX-5461 + Phenformin (first compound 0.03162 µM) turned out to be 0.645; with CX-5461 + Phenformin (first compound 0.1 µM) it was 0.452; with CX-5461 + Phenformin (first compound 0.3162 µM), 0.625; in the assay with CX-5461 + Phenformin (first compound 1 µM), 0.313; in the assay with IMD-0354 + Trametinib (first compound 0.04 µM), 0.658; in the assay with IMD-0354 + Trametinib (first compound 0.1265 µM), 0.612. The relative viability with IMD-0354 + Trametinib (first compound 0.4 µM) came to 0.49; with IMD-0354 + Trametinib (first compound 1.265 µM), 0.401; with IMD-0354 + Trametinib (first compound 4 µM) it was 0.203; in the assay with IMD-0354 + Vorinostat (first compound 0.04 µM), 1.4; with IMD-0354 + Vorinostat (first compound 0.1265 µM), 1.09; with IMD-0354 + Vorinostat (first compound 0.4 µM) it was 0.693. The figures for the relative viability in the assay with IMD-0354 + Vorinostat (first compound 1.265 µM) and with IMD-0354 + Vorinostat (first compound 4 µM) were 0.305 and 0.192, respectively.

Regarding SW 1573, the relative viability is 0.577 with IMD-0354 + Pictilisib (first compound 0.04 µM); 0.468 with IMD-0354 + Pictilisib (first compound 0.1265 µM); 0.263 in the assay with IMD-0354 + Pictilisib (first compound 0.4 µM); 0.418 with IMD-0354 + Pictilisib (first compound 1.265 µM); 0.137 with IMD-0354 + Pictilisib (first compound 4 µM); 0.421 in the assay with CX-5461 + Phenformin (first compound 0.01 µM). Also, the relative viability with CX-5461 + Phenformin (first compound 0.03162 µM) was 0.369; with CX-5461 + Phenformin (first compound 0.1 µM), 0.151; with CX-5461 + Phenformin (first compound 0.3162 µM), 0.303; with CX-5461 + Phenformin (first compound 1 µM), 0.121; with IMD-0354 + Trametinib (first compound 0.04 µM), 0.631; with IMD-0354 + Trametinib (first compound 0.1265 µM) it was 0.554. Besides, the relative viability with IMD-0354 + Trametinib (first compound 0.4 µM) was determined as 0.384; with IMD-0354 + Trametinib (first compound 1.265 µM) it was 0.107; in the assay with IMD-0354 + Trametinib (first compound 4 µM) it was 0.105; with IMD-0354 + Vorinostat (first compound 0.04 µM), 1.08; with IMD-0354 + Vorinostat (first compound 0.1265 µM), 0.676; in the assay with IMD-0354 + Vorinostat (first compound 0.4 µM), 0.429. Besides, the relative viability with IMD-0354 + Vorinostat (first compound 1.265 µM) is 0.158; with IMD-0354 + Vorinostat (first compound 4 µM), 0.0883.

UMC-11: the relative viability in the assay with IMD-0354 + Pictilisib (first compound 0.04 µM) was 0.939; with IMD-0354 + Pictilisib (first compound 0.1265 µM), 0.868; with IMD-0354 + Pictilisib (first compound 0.4 µM), 0.542; with IMD-0354 + Pictilisib (first compound 1.265 µM), 0.187; with IMD-0354 + Pictilisib (first compound 4 µM), 0.223; in the assay with CX-5461 + Phenformin (first compound 0.01 µM), 0.323. Besides, the relative viability with CX-5461 + Phenformin (first compound 0.03162 µM) came out at 0.298; in the assay with CX-5461 + Phenformin (first compound 0.1 µM), 0.246; in the assay with CX-5461 + Phenformin (first compound 0.3162 µM), 0.293; with CX-5461 + Phenformin (first compound 1 µM), 0.217; with IMD-0354 + Trametinib (first compound 0.04 µM) it was 0.745; in the assay with IMD-0354 + Trametinib (first compound 0.1265 µM), 0.808. For the same cell line, the relative viability in the assay with IMD-0354 + Trametinib (first compound 0.4 µM) stood at 0.337; in the assay with IMD-0354 + Trametinib (first compound 1.265 µM), 0.194; in the assay with IMD-0354 + Trametinib (first compound 4 µM), 0.246; with IMD-0354 + Vorinostat (first compound 0.04 µM), 0.39; in the assay with IMD-0354 + Vorinostat (first compound 0.1265 µM) it was 0.407; in the assay with IMD-0354 + Vorinostat (first compound 0.4 µM) it was 0.278. Moreover, the figures for the relative viability in the assay with IMD-0354 + Vorinostat (first compound 1.265 µM) and with IMD-0354 + Vorinostat (first compound 4 µM) were 0.189 and 0.239, respectively.
